Source: US20230085307A1, “PYRIDAZINONE COMPOUND AND HERBICIDE” (NISSAN CHEMICAL CORPORATION, priority 2019, published 2023)

Key:
velvetleaf [1] = assay: Test Example 4: herbicidal effect by soil treatment (Table 19, symbol M); assay type: in vivo, velvetleaf (Abutilon theophrasti); details: amount of applied herbicide 320 g/ha
Procedure, shortened: (§1)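 Step 1: sow seeds in sterilized diluvial soil, cover ~1.5 cm. Step 2: spray diluted emulsion onto soil surface at predetermined rate. Step 3: greenhouse, 25–30° C, three weeks. Step 4: grade effect on each plant by earlier criteria.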

barnyard grass [2] = assay: Test Example 5: herbicidal effect by foliage application, plastic box (Table 20, symbol H); assay type: in vivo, barnyard grass (Echinochloa crus-galli); details: foliage application
Procedure, shortened: (§2)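 Foliar spray test: emulsion formulation diluted in water to a set application rate, sprayed onto 14-day-old plants raised in diluvial soil at 25° C to 30° C under glass. Both herbicidal effect and crop effect rated visually three weeks later.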

barnyard grass [3] = assay: Test Example 3: herbicidal effect by foliage application, Wagner pot (Table 18, symbol H); assay type: in vivo, barnyard grass (Echinochloa crus-galli)
Procedure, shortened: (§3)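 Plants were sown in alluvial soil held under 0.1–0.5 cm standing water and grown 14 days in a greenhouse at 25–30 °C. An emulsifiable formulation, water-diluted to the set dose, was then sprayed onto the foliage, and effects were scored three weeks later using previously defined criteria.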

velvetleaf [4] = assay: Test Example 5: herbicidal effect by foliage application, plastic box (Table 20, symbol M); assay type: in vivo, velvetleaf (Abutilon theophrasti); details: foliage application
Procedure, shortened: as §2

Chinese sprangletop = assay: Test Example 3: herbicidal effect by foliage application, Wagner pot (Table 18, symbol D); assay type: in vivo, chinese sprangletop (Leptochloa chinensis)
Procedure, shortened: as §3

redroot pigweed [5] = assay: Test Example 4: herbicidal effect by soil treatment (Table 19, symbol N); assay type: in vivo, redroot pigweed (Amaranthus retroflexus); details: amount of applied herbicide 320 g/ha
Procedure, shortened: as §1

false cleavers [6] = assay: Test Example 4: herbicidal effect by soil treatment (Table 19, symbol Q); assay type: in vivo, false cleavers (Galium spurium); details: amount of applied herbicide 320 g/ha
Procedure, shortened: as §1

southern crabgrass [7] = assay: Test Example 4: herbicidal effect by soil treatment (Table 19, symbol F); assay type: in vivo, southern crabgrass (Digitaria ciliaris); details: amount of applied herbicide 320 g/ha
Procedure, shortened: as §1

blackgrass [8] = assay: Test Example 4: herbicidal effect by soil treatment (Table 19, symbol J); assay type: in vivo, blackgrass (Alopecurus myosuroides); details: amount of applied herbicide 320 g/ha
Procedure, shortened: as §1

lambsquarters [9] = assay: Test Example 5: herbicidal effect by foliage application, plastic box (Table 20, symbol O); assay type: in vivo, lambsquarters (Chenopodium album); details: foliage application
Procedure, shortened: as §2

windgrass [10] = assay: Test Example 5: herbicidal effect by foliage application, plastic box (Table 20, symbol L); assay type: in vivo, windgrass (Apera spica-venti); details: foliage application
Procedure, shortened: as §2

blackgrass [11] = assay: Test Example 5: herbicidal effect by foliage application, plastic box (Table 20, symbol J); assay type: in vivo, blackgrass (Alopecurus myosuroides); details: foliage application
Procedure, shortened: as §2

false cleavers [12] = assay: Test Example 5: herbicidal effect by foliage application, plastic box (Table 20, symbol Q); assay type: in vivo, false cleavers (Galium spurium); details: foliage application
Procedure, shortened: as §2

persian speedwell [13] = assay: Test Example 5: herbicidal effect by foliage application, plastic box (Table 20, symbol R); assay type: in vivo, Persian speedwell (Veronica persica); details: foliage application
Procedure, shortened: as §2

wild oat [14] = assay: Test Example 5: herbicidal effect by foliage application, plastic box (Table 20, symbol I); assay type: in vivo, wild oat (Avena fatua); details: foliage application
Procedure, shortened: as §2

chickweed [15] = assay: Test Example 5: herbicidal effect by foliage application, plastic box (Table 20, symbol P); assay type: in vivo, common chickweed (Stellaria media); details: foliage application
Procedure, shortened: as §2

green foxtail [16] = assay: Test Example 4: herbicidal effect by soil treatment (Table 19, symbol G); assay type: in vivo, green foxtail (Setaria viridis); details: amount of applied herbicide 320 g/ha
Procedure, shortened: as §1

persian speedwell [17] = assay: Test Example 4: herbicidal effect by soil treatment (Table 19, symbol R); assay type: in vivo, Persian speedwell (Veronica persica); details: amount of applied herbicide 320 g/ha
Procedure, shortened: as §1

chickweed [18] = assay: Test Example 4: herbicidal effect by soil treatment (Table 19, symbol P); assay type: in vivo, common chickweed (Stellaria media); details: amount of applied herbicide 320 g/ha
Procedure, shortened: as §1

Italian ryegrass [19] = assay: Test Example 5: herbicidal effect by foliage application, plastic box (Table 20, symbol K); assay type: in vivo, Italian ryegrass (Lolium multiflorum); details: foliage application
Procedure, shortened: as §2

rice flat sedge = assay: Test Example 3: herbicidal effect by foliage application, Wagner pot (Table 18, symbol E); assay type: in vivo, rice flat sedge (Cyperus iria)
Procedure, shortened: as §3

barnyard grass [20] = assay: Test Example 4: herbicidal effect by soil treatment (Table 19, symbol H); assay type: in vivo, barnyard grass (Echinochloa crus-galli); details: amount of applied herbicide 320 g/ha
Procedure, shortened: as §1

Italian ryegrass [21] = assay: Test Example 4: herbicidal effect by soil treatment (Table 19, symbol K); assay type: in vivo, Italian ryegrass (Lolium multiflorum); details: amount of applied herbicide 320 g/ha
Procedure, shortened: as §1

wild oat [22] = assay: Test Example 4: herbicidal effect by soil treatment (Table 19, symbol I); assay type: in vivo, wild oat (Avena fatua); details: amount of applied herbicide 320 g/ha
Procedure, shortened: as §1

green foxtail [23] = assay: Test Example 5: herbicidal effect by foliage application, plastic box (Table 20, symbol G); assay type: in vivo, green foxtail (Setaria viridis); details: foliage application
Procedure, shortened: as §2

southern crabgrass [24] = assay: Test Example 5: herbicidal effect by foliage application, plastic box (Table 20, symbol F); assay type: in vivo, southern crabgrass (Digitaria ciliaris); details: foliage application
Procedure, shortened: as §2

windgrass [25] = assay: Test Example 4: herbicidal effect by soil treatment (Table 19, symbol L); assay type: in vivo, windgrass (Apera spica-venti); details: amount of applied herbicide 320 g/ha
Procedure, shortened: as §1

lambsquarters [26] = assay: Test Example 4: herbicidal effect by soil treatment (Table 19, symbol O); assay type: in vivo, lambsquarters (Chenopodium album); details: amount of applied herbicide 320 g/ha
Procedure, shortened: as §1

redroot pigweed [27] = assay: Test Example 5: herbicidal effect by foliage application, plastic box (Table 20, symbol N); assay type: in vivo, redroot pigweed (Amaranthus retroflexus); details: foliage application, 320 g/ha, evaluated three weeks after application
Procedure, shortened: as §2

[28] = AAH 320 g/ha, three weeks after application
[29] = 320 g/ha, evaluated three weeks after application
[30] = amount of applied herbicide 320 g/ha

Structure (SMILES): Cc1nn(C)c(=O)c(-c2c(-c3ccc4c(c3)OC(F)(F)O4)sc3ccccc23)c1O [1-099]
- herbicidal effect rating, M: velvetleaf (velvetleaf [1]): 0 (Herbicidal rate of 5% or less (almost no effect))
- H: barnyard grass, herbicidal effect (barnyard grass [2]; [28]): 0 (Herbicidal rate of 5% or less (almost no effect))
- herbicidal effect on H (barnyard grass), rating 0-5 (barnyard grass [3]; 320 g/ha): 0 (Herbicidal rate of 5% or less (almost no effect))
- M: velvetleaf, herbicidal effect (velvetleaf [4]; [28]): 5 (Herbicidal rate of 90% or more (almost completely withered))
- herbicidal effect on D (Chinese sprangletop), rating 0-5 (Chinese sprangletop; 320 g/ha): 0 (Herbicidal rate of 5% or less (almost no effect))
- herbicidal effect rating, N: redroot pigweed (redroot pigweed [5]): 0 (Herbicidal rate of 5% or less (almost no effect))
- herbicidal effect rating, Q: false cleavers (false cleavers [6]): 2 (Herbicidal rate of 20% or more and less than 40%)
- herbicidal effect rating, F: southern crabgrass (southern crabgrass [7]): 0 (Herbicidal rate of 5% or less (almost no effect))
- herbicidal effect rating, J: blackgrass (blackgrass [8]): 0 (Herbicidal rate of 5% or less (almost no effect))
- O: lambsquarters, herbicidal effect (lambsquarters [9]; [28]): 3 (Herbicidal rate of 40% or more and less than 70%)
- L: windgrass, herbicidal effect (windgrass [10]; [28]): 0 (Herbicidal rate of 5% or less (almost no effect))
- J: blackgrass, herbicidal effect (blackgrass [11]; [28]): 1 (Herbicidal rate of 5% or more and less than 20%)
- Q: false cleavers, herbicidal effect (false cleavers [12]; [28]): 2 (Herbicidal rate of 20% or more and less than 40%)
- R: persian speedwell, herbicidal effect (persian speedwell [13]; [28]): 5 (Herbicidal rate of 90% or more (almost completely withered))
- I: wild oat, herbicidal effect (wild oat [14]; [28]): 0 (Herbicidal rate of 5% or less (almost no effect))
- P: chickweed, herbicidal effect (chickweed [15]; [28]): 5 (Herbicidal rate of 90% or more (almost completely withered))
- herbicidal effect rating, G: green foxtail (green foxtail [16]): 0 (Herbicidal rate of 5% or less (almost no effect))
- herbicidal effect rating, R: persian speedwell (persian speedwell [17]): 5 (Herbicidal rate of 90% or more (almost completely withered))
- herbicidal effect rating, P: chickweed (chickweed [18]): 4 (Herbicidal rate of 70% or more and less than 90%)
- K: Italian ryegrass, herbicidal effect (Italian ryegrass [19]; [28]): 3 (Herbicidal rate of 40% or more and less than 70%)
- herbicidal effect on E (rice flat sedge), rating 0-5 (rice flat sedge; 320 g/ha): 5 (Herbicidal rate of 90% or more (almost completely withered))
- herbicidal effect rating, H: barnyard grass (barnyard grass [20]): 0 (Herbicidal rate of 5% or less (almost no effect))
- herbicidal effect rating, K: Italian ryegrass (Italian ryegrass [21]): 0 (Herbicidal rate of 5% or less (almost no effect))
- herbicidal effect rating, I: wild oat (wild oat [22]): 0 (Herbicidal rate of 5% or less (almost no effect))
- G: green foxtail, herbicidal effect (green foxtail [23]; [28]): 0 (Herbicidal rate of 5% or less (almost no effect))
- F: southern crabgrass, herbicidal effect (southern crabgrass [24]; [28]): 0 (Herbicidal rate of 5% or less (almost no effect))
- herbicidal effect rating, L: windgrass (windgrass [25]): 0 (Herbicidal rate of 5% or less (almost no effect))
- herbicidal effect rating, O: lambsquarters (lambsquarters [26]): 0 (Herbicidal rate of 5% or less (almost no effect))

Structure (SMILES): COc1cc(F)ccc1-c1sc2ccc(C)cc2c1-c1c(O)c(C)nn(C)c1=O [2-148]
- M: velvetleaf, herbicidal effect rating (velvetleaf [1]): 3 (Herbicidal rate of 40% or more and less than 70%)
- herbicidal effect on H: barnyard grass (criteria 0-5) (barnyard grass [2]; [29]): 5 (Herbicidal rate of 90% or more (almost completely withered))
- herbicidal effect on H: barnyard grass (barnyard grass [3]; [30]): 5 (Herbicidal rate of 90% or more (almost completely withered))
- herbicidal effect on M: velvetleaf (criteria 0-5) (velvetleaf [4]; [29]): 4 (Herbicidal rate of 70% or more and less than 90%)
- herbicidal effect on D: Chinese sprangletop (Chinese sprangletop; [30]): 3 (Herbicidal rate of 40% or more and less than 70%)
- Q: false cleavers, herbicidal effect rating (false cleavers [6]): 5 (Herbicidal rate of 90% or more (almost completely withered))
- F: southern crabgrass, herbicidal effect rating (southern crabgrass [7]): 3 (Herbicidal rate of 40% or more and less than 70%)
- J: blackgrass, herbicidal effect rating (blackgrass [8]): 3 (Herbicidal rate of 40% or more and less than 70%)
- herbicidal effect on O: lambsquarters (criteria 0-5) (lambsquarters [9]; [29]): 4 (Herbicidal rate of 70% or more and less than 90%)
- herbicidal effect on L: windgrass (criteria 0-5) (windgrass [10]; [29]): 3 (Herbicidal rate of 40% or more and less than 70%)
- herbicidal effect on J: blackgrass (criteria 0-5) (blackgrass [11]; [29]): 4 (Herbicidal rate of 70% or more and less than 90%)
- herbicidal effect on Q: false cleavers (criteria 0-5) (false cleavers [12]; [29]): 5 (Herbicidal rate of 90% or more (almost completely withered))
- herbicidal effect on R: persian speedwell (criteria 0-5) (persian speedwell [13]; [29]): 5 (Herbicidal rate of 90% or more (almost completely withered))
- herbicidal effect on I: wild oat (criteria 0-5) (wild oat [14]; [29]): 3 (Herbicidal rate of 40% or more and less than 70%)
- herbicidal effect on P: chickweed (criteria 0-5) (chickweed [15]; [29]): 5 (Herbicidal rate of 90% or more (almost completely withered))
- R: persian speedwell, herbicidal effect rating (persian speedwell [17]): 5 (Herbicidal rate of 90% or more (almost completely withered))
- P: chickweed, herbicidal effect rating (chickweed [18]): 5 (Herbicidal rate of 90% or more (almost completely withered))
- herbicidal effect on K: Italian ryegrass (criteria 0-5) (Italian ryegrass [19]; [29]): 4 (Herbicidal rate of 70% or more and less than 90%)
- herbicidal effect on E: rice flat sedge (rice flat sedge; [30]): 5 (Herbicidal rate of 90% or more (almost completely withered))
- H: barnyard grass, herbicidal effect rating (barnyard grass [20]): 4 (Herbicidal rate of 70% or more and less than 90%)
- herbicidal effect on N: redroot pigweed (criteria 0-5) (redroot pigweed [27]): 5 (Herbicidal rate of 90% or more (almost completely withered))
- K: Italian ryegrass, herbicidal effect rating (Italian ryegrass [21]): 1 (Herbicidal rate of 5% or more and less than 20%)
- I: wild oat, herbicidal effect rating (wild oat [22]): 0 (Herbicidal rate of 5% or less (almost no effect))
- herbicidal effect on G: green foxtail (criteria 0-5) (green foxtail [23]; [29]): 5 (Herbicidal rate of 90% or more (almost completely withered))
- herbicidal effect on F: southern crabgrass (criteria 0-5) (southern crabgrass [24]; [29]): 5 (Herbicidal rate of 90% or more (almost completely withered))
- L: windgrass, herbicidal effect rating (windgrass [25]): 0 (Herbicidal rate of 5% or less (almost no effect))
- O: lambsquarters, herbicidal effect rating (lambsquarters [26]): 5 (Herbicidal rate of 90% or more (almost completely withered))
